We go through one compound from patent EP0519976B1, “NEUTROPHIL STIMULATING PEPTIDES” (PEPTIDE TECHNOLOGY LTD, priority 1990, dated 1991).

The test system of the test is Purified human neutrophils. The test is described as follows: Lucigenin dependent chemiluminescence assay (neutrophil respiratory burst / priming for F-met-leu-phe response). Format: cell-based. To be noted: fMLP alone. As for the experimental part:
Purified human neutrophils were pretreated with peptide for 20 minutes before the addition of f-met-leu-phe. The lucigenin dependent chemiluminescence response, which reflects superoxide production, was then measured. The results obtained are set out in Table 2 and are expressed as mV of lucigenin dependent chemiluminescence and represent the maximal cell activity attained.
This experiment was repeated with peptides 304, 308 and 309.
The experiment was also conducted using peptides 393, 394, 395 and 396. […]
Results are expressed as mV of lucigenin dependent chemiluminescence and respresent peak of response i.e. the maximal cell activity attained.

The compound `CSCC[C@H](NC=O)C(=O)N[C@@H](CC(C)C)C(=O)N[C@@H](Cc1ccccc1)C(=O)O` [fMLP, N-formyl-L-methionyl-L-leucyl-L-phenylalanine] yielded a Chemiluminescence (Exp. 1) of 1.53 mV, a Chemiluminescence (Exp. 2) of 3.53 mV and a Chemiluminescence (Exp. 3) of 1.96 mV.
